According to patent publication US20220162215A1, “COMPOSITIONS AND METHODS OF USING THE SAME FOR TREATMENT OF NEURODEGENERATIVE AND MITOCHONDRIAL DISEASE” (MITOKININ, INC., priority 2019, published 2022):
Where two headings read alike, the source gives them in different places.

Experiments:
[1] = Visual inspection of crystallization; assay type: physicochemical; set-up: key: 1: yes crystals; 0: no crystals; conditions: Tables 5A-5D
Procedure: (§1) Briefly, the Hela MKYP (Mito-Keima/YFP-Parkin) cells were seeded at 10K cells/well. EP/MTK compounds were added at seeding (cells were still in suspension). The cells were incubated with the EP/MTK compounds for 16 hours, then 1 μM FCCP/oligomycin was added for 6 hours. Prior to harvesting, cells were scored by eye under 20× magnification for the presence or absence of crystalline or aggregated compound, or round cells.

[2] = tested on: Hela MKYP (Mito-Keima/YFP-Parkin) cells; conditions: human, 22 h
Procedure: as §1

HeLa MKYP cells = test: Toxicity / cell death measured by DAPI staining (take-up); assay type: cell-based; conditions: human, 50 μM
Procedure: H2O2 treatment was performed as a control for cell death as measured by DAPI staining.
Briefly, HeLa MKYP cells were plated at 10,000 cells/well in 96 well plates along with compounds at various concentrations. Following 16 hrs of incubation, cells were treated with 1 uM FCCP/oligomycin for 6 hours, then analyzed via FACS for the presence of mitochondria in lysosomes (as determined by an emissions spectrum shift from the pH-sensitive mtKeima tag).

Row | SMILES | Visual inspection of crystallization ([1]; 1.6 μM) | Visual inspection of crystallization ([1]; 3.1 μM) | Visual inspection of crystallization ([1]; 6.3 μM) | Visual inspection of crystallization ([1]; 12.5 μM) | Visual inspection of crystallization ([1]; 25.0 μM) | Visual inspection of crystallization ([1]; 50.0 μM) | Inspection of round cells ([2]; 1.6 μM) | Inspection of round cells ([2]; 3.1 μM) | Inspection of round cells ([2]; 6.3 μM) | Inspection of round cells ([2]; 12.5 μM) | Inspection of round cells ([2]; 25 μM) | Inspection of round cells ([2]; 50 μM) | Toxicity (% positive for DAPI take-up @ 50 μM) (HeLa MKYP cells) [%]
1 | c1ccc(CNc2ncnc3nc[nH]c23)cc1 [Compound 6BAP, 6-benzylaminopurine, reference compound] | 0 | 0 | 0 | 0 | 0 | 0 | 0 | 0 | 0 | 0 | 0 | 0 | –
2 | c1coc(CNc2ncnc3[nH]cnc23)c1 [kinetin, reference compound] | 0 | 0 | 0 | 0 | 0 | 0 | 0 | 0 | 0 | 0 | 0 | 0 | 4.9
